# Measurements from ChEMBL document CHEMBL1133482, “1-Phenyl-5-pyrazolyl ureas: potent and selective p38 kinase inhibitors” (Bioorg Med Chem Lett, 2000).
# Assay: Aqueous solubility at pH 7.5
# Format: physicochemical
row,Structure (SMILES),solubility [µg/mL]
1,CC(C)(C)c1cc(NC(=O)Nc2cccc(Cl)c2Cl)n(-c2ccc(S(C)(=O)=O)cc2)n1,79
2,CC(C)(C)c1cc(NC(=O)Nc2cccc(Cl)c2Cl)n(-c2ccc([N+](=O)[O-])cc2)n1,66
3,CC(C)(C)c1cc(NC(=O)Nc2cccc(Cl)c2Cl)n(-c2ccccc2)n1,24

# Now from value to molecule:
row,solubility [µg/mL],Structure (SMILES)
1,17,CC(C)(C)c1cc(NC(=O)Nc2cccc(Cl)c2Cl)n(-c2cccc(F)c2)n1
2,46,COc1cccc(-n2nc(C(C)(C)C)cc2NC(=O)Nc2cccc(Cl)c2Cl)c1
3,594,CC(C)(C)c1cc(NC(=O)Nc2cccc(Cl)c2Cl)n(-c2cccc(N)c2)n1
4,18,CC(C)(C)c1cc(NC(=O)Nc2cccc(Cl)c2Cl)n(-c2cccc([N+](=O)[O-])c2)n1
